Reference: BindingDB's records for doi:10.1016/S0960-894X(00)80413-8 (1992)

Molecular target: Ribose-phosphate pyrophosphokinase (Escherichia coli) (UniProt P0A717)
Assay: Inhibitory concentration against Escherichia coli Pyrophosphate Synthetase (PRPP)

Ribose-phosphate pyrophosphokinase (Escherichia coli), sequence (P0A717 whole entry, looked up): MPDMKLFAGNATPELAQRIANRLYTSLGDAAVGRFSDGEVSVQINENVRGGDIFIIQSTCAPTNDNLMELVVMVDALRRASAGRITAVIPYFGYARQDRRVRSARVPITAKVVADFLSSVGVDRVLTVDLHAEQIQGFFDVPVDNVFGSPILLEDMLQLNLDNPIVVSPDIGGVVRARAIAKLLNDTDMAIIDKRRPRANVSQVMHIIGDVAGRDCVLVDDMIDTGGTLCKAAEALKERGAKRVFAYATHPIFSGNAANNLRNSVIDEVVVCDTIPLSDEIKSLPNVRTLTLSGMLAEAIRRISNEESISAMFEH

SMILES	IC50
Nc1ncnc2c1ncn2[C@@H]1O[C@H](COP(=O)(O)O)[C@H](O)[C@@H]1O [Phosphoric acid mono-[(2R,3R,4S,5R)-5-(6-amino-purin-9-yl)-3,4-dihydroxy-tetrahydro-furan-2-ylmethyl] ester]	5100 µM
Nc1ncnc2c1ncn2[C@H]1CC[C@@H](CC(F)(F)P(=O)(O)O)C1 [{2-[(1R,3S)-3-(6-Amino-purin-9-yl)-cyclopentyl]-1,1-difluoro-ethyl}-phosphonic acid]	1000 µM
Nc1ncnc2c1ncn2[C@H]1CC[C@@H](CCOP(=O)(O)O)C1 [Phosphoric acid mono-{2-[(1R,3S)-3-(6-amino-purin-9-yl)-cyclopentyl]-ethyl} ester]	600 µM
Nc1ncnc2c1ncn2CCOCP(=O)(O)O [9-[2-phosphonomethoxyethyl]adenine]	3200 µM
